Results on eight compounds are retold here after patent publication US5411964A, “Phenylalanine-glycine compounds having anti-tumor activity, process for preparation thereof, and pharmaceutical composition containing said compounds” (Kureha Chemical Industry Co., Ltd., priority 1992, dated 1995).

The test system of data set [1] is Sarcoma-180. Put plainly: Antitumor activity: inhibition of solid Sarcoma-180 tumor implanted subcutaneously in ICR mice. Type of data set: in vivo. Particulars: day 22, i.p. 10 times every other day, mg/kg: 5-Fu 15, MP 10, 5-CAU 10, Phe+5-Fu 15+15, Phe+MP 15+10, Phe+5-CAU 15+10, Phe-5-Fu 30, Phe'-5-Fu 30, Phe-MP 20, Phe-5-CAU 20; for Average tumor weight ± SD: control 3.438 ± 1.481, in g (unit assumed). The procedure:
The concentration of the solid tumor cells (Sarcoma-180) was aseptically adjusted to 1×10^6 /0.2 ml with a medium [prepared by filtering 10% bovine fetal serum-added MEM (Eagles' Minimum Essential Medium) for sterilization, and stored at 4° C.] and subcutaneously implanted at the axillas of ICR mice (5 weeks old; females; one group consisting of 10 mice). From the next day, the samples (0.15% physiological saline solution) shown in Table 1 were administered intraperitoneally 10 times every other day. On the 22nd day, the tumors were excised and the inhibition rate (IR) was obtained from the weight of the tumors. The inhibition rate (IR) (%) was calculated by the following formula: […]
wherein T is the average tumor weight of the treated group, and C is the average tumor weight of the control group.

The subject of data set [2] is Wistar rats. Kind of data set: Acute toxicity, oral forced administration to Wistar rats. Particulars: 250 mg/kg by forced administration, fasted male Wistar rats, observed until 14 days. Type of data set: in vivo. The protocol: (1) The conditions in the feeding chamber were arranged to a temperature of 23°±1° C., a relative humidity of 55±5%, a ventilation frequency of 20 times per hour, and a lighting term of 12 hours. Wistar rats (male; five-week old;. 120 to 141 g) were used. The rats were placed in metallic cages having wire walls in the front and bottom thereof, at the rate of 5 rats per one cage. They were allowed food (MF: Oriental Yeast) and water ad libitum.
The conjugate (I-1) of the present invention obtained from Example 1(5) was suspended in a 1.5% methylcellulose aqueous solution. The suspension was administered by force. The amount of the administration was 1 ml per 100 g body weight of animals forced to fast for 18 hours, that is, 250 mg/kg was administered. Symptoms of addiction and survival were observed hourly up to 8 hours after the administration, then twice a day until 14 days after administration.

In data set [3] the test system is pyruvate kinase M2-type isoenzyme. Particulars: low concentration of L-phenylalanine; cited from earlier work.

As to `CCOC(=O)C(NC(=O)[C@@H](N)Cc1ccccc1)n1cc(F)c(=O)[nH]c1=O` (mixture of isomers) [Phe'-5-Fu, L-phenylalanyl-2-(5-fluorouracil-1-yl)-D,L-glycineethylester], in data set [1], the “IR (inhibition rate from tumor weight)” value is 76.5% and the “Average tumor weight ± SD” value is listed as 0.808 ± 0.389.
The corresponding values for `N[C@@H](Cc1ccccc1)C(=O)NC(C(=O)O)n1cc(N(CCCl)CCCl)c(=O)[nH]c1=O` (mixture of isomers) [Phe-5-CAU, L-phenylalanyl-2-[5-(bis(2-chloroethyl)amino)uracil-1-yl]-D,L-glycine] are 75.2% and 0.854 ± 0.664.
In the case of `N[C@@H](Cc1ccccc1)C(=O)NC(C(=O)O)n1cc(F)c(=O)[nH]c1=O` (mixture of isomers) [Phe-5-Fu, L-phenylalanyl-2-(5-fluorouracil-1-yl)-D,L-glycine], the “Survival / death after administration” value in data set [2] is “No death was observed”. Moreover, in data set [1], the “IR (inhibition rate from tumor weight)” value turned out to be 77.6% and the “Average tumor weight ± SD” value worked out at 0.770 ± 0.397.
On to `O=c1[nH]cc(N(CCCl)CCCl)c(=O)[nH]1` [5-CAU, 5-[bis(2-chloroethyl)amino]uracil, reference compound], for which, in data set [1], the “IR (inhibition rate from tumor weight)” value is 54.2% and the “Average tumor weight ± SD” value was 1.574 ± 1.285.
For `O=c1[nH]cc(F)c(=O)[nH]1` [5-Fu, 5-fluorouracil, reference compound], in data set [1], the “IR (inhibition rate from tumor weight)” value was 57.3% and the “Average tumor weight ± SD” value amounted to 1.467 ± 1.437.
In the case of `N[C@@H](Cc1ccccc1)C(=O)O` [L-phenylalanine], the “inhibition of M2-type isoenzyme of pyruvate kinase (in words)” value in data set [3] is listed as “selectively inhibited”.
For `N[C@@H](Cc1ccc(N(CCCl)CCCl)cc1)C(=O)O` [MP, Melphalan, reference compound], in data set [1], the “IR (inhibition rate from tumor weight)” value came to 60.5% and the “Average tumor weight ± SD” value was found to be 1.358 ± 1.369.
With `CCOC(=O)C(NC(=O)[C@@H](N)Cc1ccccc1)N[C@@H](Cc1ccc(N(CCCl)CCCl)cc1)C(=O)OC` (stereo partly drawn) [Phe-MP, L-phenylalanyl-2-[p-(bis(2-chloroethyl)amino)-L-phenylalaninemethylester-2-yl]-D,L-glycineethylester], in data set [1], the “IR (inhibition rate from tumor weight)” value is recorded as 72.6% and the “Average tumor weight ± SD” value amounted to 0.943 ± 0.587.
